Assay results: paper PMC7588042

Experiments:
[1] = double amidation of dimethyl bis(oxyacetate) diester with alpha,omega-diamine (aminolysis of methyl ester, no additive), 1 bar, 168 h; settings: the molecule shown is the open-chain precursor, MeOH, 30.0 mM, 25.0 °C, 2 steps, scale: mol% diamide
[2] = double amidation of dimethyl bis(oxyacetate) diester with alpha,omega-diamine (aminolysis of methyl ester, no additive), 10 kbar, 24 h; settings: the molecule shown is the open-chain precursor, MeOH, 30.0 mM, 25.0 °C, 2 steps, scale: mol% diamide

With COC(=O)COc1cccc(OCC(=O)NCCCOCCCCOCCCN)c1 [3{2,2}] the ring closure, monomer to dimer ([1]; 23-membered ring) was 85 and the ring closure, monomer to dimer ([2]; 23-membered ring) was 76.5.
In the case of COC(=O)COc1cccc(OCC(=O)NCCCOCCOCCOCCCN)c1 [3{2,3}], the ring closure, monomer to dimer ([1]; 24-membered ring) was 95 and the ring closure, monomer to dimer ([2]; 24-membered ring) was 78.
With COC(=O)COc1ccc(OCC(=O)NCCCOCCCCOCCCN)cc1 [3{3,2}] the ring closure, monomer to dimer ([1]; 24-membered ring) was 85 and the ring closure, monomer to dimer ([2]; 24-membered ring) was 81.
With COC(=O)COc1cccc(OCC(=O)NCCOCCN)c1 [3{2,1}] the ring closure, monomer to dimer ([1]; 16-membered ring) was 77 and the ring closure, monomer to dimer ([2]; 16-membered ring) was 68.5.
In the case of COC(=O)COc1ccc(OCC(=O)NCCCOCCOCCOCCCN)cc1 [3{3,3}], the ring closure, monomer to dimer ([1]; 25-membered ring) was 89 and the ring closure, monomer to dimer ([2]; 25-membered ring) was 79.
Work on COC(=O)COc1ccc(OCC(=O)NCCOCCN)cc1 [3{3,1}] yielded a ring closure, monomer to dimer ([1]; 17-membered ring) of 33 and a ring closure, monomer to dimer ([2]; 17-membered ring) of 16.5.
Molecule COC(=O)COc1ccccc1OCC(=O)NCCCOCCCCOCCCN [3{1,2}] has a ring closure, monomer to dimer ([1]; 22-membered ring) of 85 and a ring closure, monomer to dimer ([2]; 22-membered ring) of 78.
Work on COC(=O)COc1ccccc1OCC(=O)NCCOCCN [3{1,1}] yielded a ring closure, monomer to dimer ([1]; 15-membered ring) of 99.5 and a ring closure, monomer to dimer ([2]; 15-membered ring) of 95.
Work on COC(=O)COc1ccccc1OCC(=O)NCCCOCCOCCOCCCN [3{1,3}] yielded a ring closure, monomer to dimer ([1]; 23-membered ring) of 88 and a ring closure, monomer to dimer ([2]; 23-membered ring) of 76.
